Values after ≈ are worked out from the molar mass of the structure shown. Like-named read-outs stand apart in the source and are kept apart here.
Assay: Solubility of budesonide at room temperature
Format: physicochemical
Description: The solubility at room temperature of budesonide in water was determined to be about. 0.01 mg/ml, about 1 mg/ml in glycerin and about 10 mg/ml in propylene glycol at room temperature.

With `CCCC1O[C@@H]2C[C@H]3[C@@H]4CCC5=CC(=O)C=C[C@]5(C)[C@H]4[C@@H](O)C[C@]3(C)[C@]2(C(=O)CO)O1` (stereo partly drawn) [budesonide, 16,17-butylidenebis(oxy)-11,21-dihydroxy-, (11β, 16α)-pregna-1,4-diene-3,20-dione] the solubility (organic solvent or mixture, glycerin, read-out: solubility in glycerin) was ~1000 µg/mL (≈ 2320 µM), the solubility (organic solvent or mixture, propylene glycol, read-out: solubility in propylene glycol) was ~10000 µg/mL (≈ 23200 µM) and the solubility (water, read-out: solubility in water) was ~10 µg/mL (≈ 23.2 µM).

Source: patent publication US12539306B2, “Mucoadhesive pharmaceutical compositions of corticosteroids” (Ferring B.V., priority 2018, dated 2026)
